Patent publication US8455196B2, “Biomarker for identifying subgroup of early-stage lung adenocarcinoma patients” (priority 2011, dated 2013)

Tests used:
phospho-H2AX (γ-H2AX) = assay: Immunoblot of cisplatin-induced H2AX phosphorylation; type: cell-based, human; conditions: cisplatin 35 μM; for cisplatin-induced γ-H2AX after TOPK shRNA: A549-Luc cells stably transfected with shRNA
From the text: Cells were harvested for detecting the expression of phospho-H2AX (γ-H2AX), H2AX and TOPK by immunoblotting.
Platinum-based combination chemotherapy (i.e. cisplatin) is recognized as the first-line standard of care in NSCLC. […]

pAKT = assay: Immunoblot of EGF-induced AKT phosphorylation in A549-Luc cells; type: cell-based, human; conditions: A549-Luc stably transfected with shRNA; serum deprived 24 hrs; EGF 20 ng/ml, 0-30 min
Experimental: FIG. 15 provides the results of knockdown of TOPK decreasing EGF-induced AKT phosphorylation in A549-Luc cells. shNC, shTOPK-3 (SEQ ID NO: 3), and shTOPK-4 (SEQ ID NO: 4) stably transfected A549-Luc cells were serum deprived for 24 hrs. EGF (20 ng/ml) was added to stimulate cells for 0˜30 min as indicated. Then, cells were harvested for detecting the expression of pAKT, AKT and TOPK by immunoblotting.
(§1) Different lung cancer cell lines have been previously analyzed for the expression level of TOPK (data not shown). […] Recently, we have tested the knockdown effect of TOPK in promoting cisplatin-induced cytotoxicity in other lung cancer cells, such as CL152 and CL141 cells.

CL152 cells = assay: MTT cell viability after cisplatin in siRNA-transfected CL152 cells; type: cell-based; conditions: cisplatin 35 μM, 48 hr
Experimental: After 48 hr, MTT assays were performed to examine the cell viability (n=3, ** P<0.01).
as §1

[1] = human, in vivo; cited from earlier work
PTEN = assay: Immunoblot of PTEN in TOPK-transfected CL1-0 cells treated with inhibitor; type: cell-based, human; conditions: LY294002 10 μM
Experimental: CL1-0 (C, left), H1299 (C, right), and IMR90 (D) cells were transiently transfected with a vector control or pCMV2-Flag-TOPK (WT) or pCMV2-Flag-TOPK (KD) plasmid; twenty-two hours after transfection, a fraction of the cells was harvested for immunoblotting as indicated in (B); the migration and cell viability of TOPK-overexpressing IMR90 cells was also evaluated as described previously (D, right panel) (*P<0.05, **P<0.01, ***P<0.001);
To determine whether TOPK mediated AKT-dependent cell mortility by regulating the PTEN protein level, we first examined whether co-treating cells with LY294002, a PI3K inhibitor, could affect the TOPK-induced decrease in PTEN. […] Moreover, when PTEN was ectopically expressed, TOPK-induced phosphorylation of AKT-Ser^473 was blocked in a dose-dependent manner (FIG. 5A).

CL1-0 cells = assay: Transwell migration of TOPK-overexpressing CL1-0 cells with pharmacological inhibitors; type: cell-based, human; conditions: CL1-0 cells transfected with pCMV2-Flag-TOPK; inhibitor 10 μM, 2 hrs
Experimental: All cell culture related reagents were purchased from Invitrogen. […] All cells were cultured in appropriate medium, e.g., RPMI 1640 for A549, CL1-0 and CL1-5; DMEM for IMR90, H1299 and H23. Each medium were supplemented with 10% fetal bovine serum, 2 mM of L-glutamine and 1% penicillin/streptomycin. Transfection of cells was done using lipofetamine (Invitrogen) according to the manufacturer's instructions. […] At 24 or 48 hr post-transfection, cells were harvested and subjected to a migration or proliferation assay and the protein level of TOPK was determined by western blotting as described previously (Chen et al 2009a). Pharmacological inhibitors used (LY294002, U0126, and SB203580) were from Cell Signaling.

Molecule | cisplatin-induced γ-H2AX after TOPK shRNA (phospho-H2AX (γ-H2AX)) | EGF-induced AKT phosphorylation (pAKT) | increase in cell migration stimulated by ectopic expression of TOPK (CL1-0 cells) | also measured
shTOPK-4: shRNA having a sequence as set forth in SEQ ID NO:4 (TGTGGGAAATGATGACTTTAT; shRNA, further chemistry not given here) | significantly decreasing | decreasing |  | 
N.N.[Cl][Pt][Cl] [cisplatin] |  |  |  | cell death induced by cisplatin (CL152 cells): ~90%; concentration found in the serum of cisplatin-treated patients [1]: 35 µM; time of peak of cisplatin-induced γ-H2AX (phospho-H2AX (γ-H2AX); A549 control cells): 12 h
shTOPK-3: shRNA having a sequence as set forth in SEQ ID NO:3 (TGACCCTGAGGCTTGTTACAT; shRNA, further chemistry not given here) | significantly decreasing | decreasing |  | 
O=c1cc(N2CCOCC2)oc2c(-c3ccccc3)cccc12 [LY294002] |  |  |  | TOPK-induced reduction of PTEN (PTEN): no effect
N#CC(=C(/N)Sc1ccccc1N)/C(C#N)=C(\N)Sc1ccccc1N [U0126] |  |  | inhibited to a smaller extent | 
C[S+]([O-])c1ccc(-c2nc(-c3ccncc3)c(-c3ccc(F)cc3)[nH]2)cc1 (stereo not shown) [SB203580] |  |  | inhibited to a smaller extent | 
